Laboratory results from US20190169134A1, “NOVEL CLASS OF QUINOLONE HETEROCYCLIC AROMATIC MOLECULES FOR CANCER TREATMENT” (RenoTarget Therapeutics, Inc., priority 2016, published 2019).

Key:
22RV1 = assay: Cell growth inhibition by SRB method; type: cell-based, human; conditions: for growth inhibition of 22RV1 cells (in words): EGFR negative cell line, 72 hrs, FIG. 2 and 3; for IC50: 72 hrs exposure, SRB
Excerpt: (§1) Six human cancer cell lines have been used to evaluate effects of the compounds on proliferation of cancer cells. These cell lines include HCC827-P (or HCC827 parent cells), human non-small lung cancer cells, Parent NSCLC HCC827 cell line (which harbors EGFR gene amplification, Exon 19 (E19) deletion, and Exon 21 mutation (Wang, Ramakrishnan et al. 2010), and is an EGFRi sensitive cell line (Kim, Kim et al. 2010)); HCC827-TR16 (Tarceva-resistant HCC727 cell line), HCC827-OR16 (AZD9291-resistant HCC727 cell line), LNCaP (human prostate cancer cells—a hormonal-therapy sensitive cell line (Wang, Liu et al. 1997)); 22RV1 (human prostate cancer cells—a hormonal-therapy resistant cell line (Sramkoski, Pretlow et al. 1999)); and ACHN (human renal adenocarcinoma cells (Park, Jung et al. 2003)). LNCaP cells and 22RV1 cells were purchased from the American Type Culture Collection (Rockville, Md.) and others were gifts of friends.
(§2) All cell lines were maintained in RPMI-1640 (GIBCO, Gaithersburg, Md.) with 10% heat-inactivated bovine serum (FBS) (Wang, Ossowski et al. 2004).
(§3) Sulforhodamine B (SRB) was used to estimate cell growth as described previously (Skehan, Storeng et al. 1990). Briefly, cells grown exponentially were aliquoted into 96-well plates at a density of 2,500 to 5,000 cells/200 μl per well in RPMI 1640 medium containing 10% FBS. After twenty-four hours, the cells were exposed to indicated concentrations of tested compounds for 72 hrs or otherwise as indicated. The cells were then fixed with 10% trichloride acetic acid for 2 h at 4° C. The 10% trichloride acetic acid was removed, and the dishes were washed 5 times with tape water, and air-dried. The fixed and dried cells were then stained with 0.4% SRB in 1% acetic acid for 25 min, and the dishes were washed 5 times with 1% acetic acid and air-dried overnight. 200 μl of 10 mM of Tris buffer (pH 10.0) were added, and the dishes were rotated to completely dissolve the color. Absorbance at 570 nm, with a reference wavelength 690 nm, was measured on a 96-well microplate reader (SPECTRO Star^Nano, BMG Labtech). Mean, standard deviation (SD) and the percent of growth inhibition at each concentration point of the treatment were calculated. The percent of growth inhibition as defined as (1−T/C)×100 where T is the mean of the absorbance at 570 nm from the treatment, and C from control (drug vehicle only). IC50 was calculated using Sigma-plot software by regression of growth-concentration curve from each drug treatment.

HCC827P = assay: Cell growth inhibition by SRB method; type: cell-based, human; conditions: for IC50: 72 hrs exposure, SRB
Excerpt: as §1
(§4) To evaluate activities of new compounds on growth of EGFR-inhibitor-resistant cells, two EGFRi-resistant cell lines, i.e., HCC827-TR16 and HCC827-OR16 were established using a method described by Eberlein et al. (Eberlein, Stetson et al. 2015). […] Resistant cells were collected and stabilized after 5 weeks (cycle 5). […] The resistant cells were sorted using 96-well dishes by culturing cells with density of 0.1, 1, 10, and 100 cells per well.
as §2, §3

LNCaP = assay: Cell growth inhibition by SRB method; type: cell-based, human; conditions: for IC50: Homo sapiens, LNCaP, 72 hrs exposure, SRB
Excerpt: as §1, §2, §3

HCC827OR16 = assay: Cell growth inhibition by SRB method; type: cell-based, human; conditions: AZD9291-resistant line, 72 hrs exposure
Excerpt: as §1, §4, §2, §3

HCC827TR16 = assay: Cell growth inhibition by SRB method; type: cell-based; conditions: Homo sapiens, Tarceva-resistant line, 72 hrs exposure
Excerpt: as §1, §4, §2, §3

[1] = tested on: HCC827 P and HCC827 TR cells; assay: Reno647/Carboplatin combination, median effects (SRB, CalcuSyn); type: cell-based, human
Procedure: As described in Example 2.1. Two cell lines, HCC827-P and HCC827-TR (Tarceva-resistant HCC727 cells-an EGFRi resistant cell line with MET amplification) (Wang, Pursell et al. 2013) were used in the combination study. Exponentially growing HC[…] and HCC827-TR cells were seeded into 96-wells dishes at density of 3,000 cells per well. Twenty-four hours later, the cells were exposed concurrently to serial dilution of Reno647 or Carboplatin or Camptothecin alone or in combination at a ratio of 1:50 with Carboplatin or at ratio 1:1 with Camptothecin for 3 days. Reno647 were concurrently and sequentially with paclitaxel (Taxol) at ratio of 200:1 for 6 days. For sequential exposure, the cells were treated with Reno647 for 3 days, after removal of the drug containing medium, the cells were treated with Taxol for additional 3 days, or the cells were treated by Taxol first followed by the treatment with Reno 647. After incubation for 6 days, the cell growth was measured by SRB as described previously in Example 2.1 section, and the percentages of inhibition (1-T/C) % were calculated, and data were analyzed by a PC program, CalcuSyn, Biosoft (edited by T.-C. Chou, Memorial Sloan-Kettering Cancer Center, New York, and M. P. Hayball, at Cambridge, UK, 1996). The computer-calculated combination index (CI) was used to judge the outcomes of a combination: […] It has long been accepted that chemotherapy provided some benefit for patients with non-small-cell lung cancer (NSCLC) in terms of quality of life and symptomatology as well as modest improvements in survival. […] Cell growth was determined by SRB as described above.

ACHN = assay: Cell growth inhibition by SRB method; type: cell-based, human; conditions: 72 hrs exposure
Excerpt: as §1, §2, §3

tested cancer cell lines = assay: Cell growth inhibition by SRB method, tested cancer cell lines overall; type: cell-based, human; conditions: data not provided
Excerpt: as §1, §2, §3

| Compound | IC50 (LNCaP) [µM] | IC50 (22RV1; Homo sapiens, 22Rv1) [µM] | IC50 (HCC827OR16; Homo sapiens) [µM] | IC50 (HCC827P; Homo sapiens) [µM] | IC50 (HCC827TR16) [µM] | activities against all tested cancer cells lines compared with NK-2206 and MLN8237 (tested cancer cell lines) | further results |
| --- | --- | --- | --- | --- | --- | --- | --- |
| O=C(c1cc(Cc2n[nH]c(=O)c3ccccc23)ccc1F)N1CCN(C(=O)C2CC2)CC1 [AZD2281, reference compound] |  |  |  |  |  |  | growth inhibition of 22RV1 cells (in words) (22RV1): significantly inhibited; growth inhibition of HCC827P cells (in words) (HCC827P; EGFR positive cell line, 72 hrs, FIG. 3): no activity |
| C=CC(=O)Nc1cc(Nc2nccc(-c3cn(C)c4ccccc34)n2)c(OC)cc1N(C)CCN(C)C [AZD9291, reference compound] | 2 | 0.65 | 2 | < 0.2 | 1.2 |  |  |
| N.N.O=C([O-])C1(C(=O)[O-])CCC1.[Pt+2] [Carboplatin, reference compound] |  |  |  |  |  |  | dose reduction in combination ([1]; Reno647:Carboplatin 1:50): 2 fold; median effects, two drugs combined ([1]; Reno647:Carboplatin 1:50, concurrent, cell line not stated): 3.38 µM; median effects, drug alone ([1]; single agent, cell line not stated): 8.39 µM |
| C#Cc1cccc(Nc2ncnc3cc(OCCOC)c(NC(=O)c4ccc(Br)c([N+](=O)[O-])c4)cc23)c1 [Reno636, 4-Bromo-N-[4-(3-ethynyl-phenylamino)-7-(2-methoxy-ethoxy)-quinazolin-6-yl]-3-nitro-benzamide] |  | > 5 | > 5 | 0.2 | > 5 | better activities | IC50 (ACHN; Homo sapiens, ACHN): > 5 µM |
| C#Cc1cccc(Nc2ncnc3cc(OCCOC)c(NC(=O)c4ccc(Cl)c([N+](=O)[O-])c4)cc23)c1 [Reno648, 4-Chloro-N-[4-(3-ethynyl-phenylamino)-7-(2-methoxy-ethoxy)-quinazolin-6-yl]-3-nitro-benzamide] | > 5 | > 5 | > 5 | 0.15 | > 5 | better activities |  |
| C#Cc1cccc(Nc2ncnc3cc(OCCOC)c(NC(=O)c4ccc(I)c([N+](=O)[O-])c4)cc23)c1 [Reno649, 4-Iodo-N-[4-(3-ethynyl-phenylamino)-7-(2-methoxy-ethoxy)-quinazolin-6-yl]-3-nitro-benzamide] | > 5 | 2.3 | 1.8 | 0.2 | > 5 | better activities |  |
| C#Cc1cccc(Nc2ncnc3cc(OCCOC)c(OCCOC)cc23)c1 [Tarceva, reference compound] | > 5 | > 5 | > 5 | < 0.2 | > 5 |  | growth inhibition of LNCaP cells (in words) (LNCaP; 72 hrs, FIG. 2): relatively weak response; IC50 (ACHN; Homo sapiens, ACHN): 0.625 µM; growth inhibition of 22RV1 cells (in words) (22RV1): relatively weak response; IC50 HCC827OR16 (HCC827OR16): almost unmeasurable |
| (3-Ethynyl-phenyl)-[6-(2-methoxy-ethoxy)-7-nitro-naphthalen-1-yl]-amine [Reno635] |  |  |  |  |  |  | IC50 (ACHN): 3.75 µM; IC50 (22RV1): 5 µM; IC50 (HCC827OR16): > 5 µM; IC50 (HCC827P): > 5 µM |
